Data: PubChem BioAssay (NCI)
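Five compound concentrations were applied to cells in 96-well plates for 48 hours; endpoints were derived by simple linear interpolation of the resulting dose-response curve. GI50 = concentration required for 50% inhibition of growth. TGI: total growth inhibition.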

Tests used:
Assay in all cases: DTP human tumour cell line panel, 48 h
BT-549 breast = tested on: BT-549 breast
IGROV1 ovarian = tested on: IGROV1 ovarian
NCI-H226 lung = tested on: NCI-H226 lung
SK-OV-3 ovarian = tested on: SK-OV-3 ovarian
SNB-19 CNS = tested on: SNB-19 CNS
A498 renal = tested on: A498 renal
RXF 393 renal = tested on: RXF 393 renal
KM12 colon = tested on: KM12 colon
MALME-3M melanoma = tested on: MALME-3M melanoma
TK-10 renal = tested on: TK-10 renal

Row | Structure (SMILES) | GI50 (BT-549 breast) | TGI (BT-549 breast) | GI50 (IGROV1 ovarian) | TGI (IGROV1 ovarian) | GI50 (NCI-H226 lung) | TGI (NCI-H226 lung) | GI50 (SK-OV-3 ovarian) | TGI (SK-OV-3 ovarian) | GI50 (SNB-19 CNS) | TGI (SNB-19 CNS) | GI50 (A498 renal) | TGI (A498 renal) | GI50 (RXF 393 renal) | TGI (RXF 393 renal) | GI50 (KM12 colon) | TGI (KM12 colon) | GI50 (MALME-3M melanoma) | TGI (MALME-3M melanoma) | GI50 (TK-10 renal) | TGI (TK-10 renal)
1 | COc1cccc(C2=C(c3cn(C)c4ccccc34)C(=O)NC2=O)c1 | 11.9 µM | > 25000 nM | 21.8 µM | > 25 µM | 7.96 µM | > 25 µM | 12.7 µM | > 25 µM | > 25 µM | > 25 µM | 3090 nM | > 25000 nM | 6430 nM | > 25 µM | 8.45 µM | > 25000 nM | 14.2 µM | > 25000 nM | 13.3 µM | > 25 µM
2 | N=C(N)c1nn(C2OC(CO)C(O)C2O)c2nc[nH]c(=O)c12 (stereo not given) | 0.33 µM | 2670 nM | 1.19 µM | 3.81 µM | 0.611 µM | 3.74 µM | 0.409 µM | 2.97 µM | 2.34 µM | 8.71 µM | 1460 nM | 4740 nM | 696 nM | 4.89 µM | 0.341 µM | 1460 nM | 0.206 µM | 612 nM | 0.363 µM | 2.17 µM
3 | O=C(O)CS(=O)(=O)C(c1ccccc1)c1ccccc1 | – | > 100000 nM | – | > 100 µM | – | > 100 µM | – | > 100 µM | – | > 100 µM | – | > 100000 nM | – | > 100 µM | – | > 100000 nM | – | > 100000 nM | – | > 100 µM
4 | CC1Oc2cc3c(-c4c(O)cc(O)c5c(O)c6c(cc45)OC(C)C(C)C6=O)c(O)cc(O)c3c(O)c2C(=O)C1C (stereo not given) | – | 775 nM | – | 1.3 µM | – | 0.89 µM | – | 1.56 µM | – | 1.16 µM | – | 784 nM | – | 0.207 µM | – | 1510 nM | – | 1130 nM | – | 5.45 µM
5 | N#CC(C#N)=Cc1ccc(-c2ccc(-c3nc4ccccc4s3)cc2)o1 | 32.9 µM | 96100 nM | 3.7 µM | 56.3 µM | 14.2 µM | 39.2 µM | 10 µM | 35.4 µM | 30 µM | 84.3 µM | 346 nM | 985 nM | 42400 nM | > 100 µM | 16.9 µM | > 100000 nM | 22.2 µM | > 100000 nM | 17.2 µM | 36.9 µM
6 | C=C(C)[C@@H]1CC[C@]2(C(=O)NCCCN)CC[C@]3(C)[C@H](CC[C@@H]4[C@@]5(C)CC[C@H](O)C(C)(C)[C@@H]5CC[C@]43C)[C@@H]12 | 23.8 µM | 75900 nM | 21.5 µM | > 100 µM | 21.2 µM | > 100 µM | 17.7 µM | 49.4 µM | 24.7 µM | 84.5 µM | 22900 nM | 49200 nM | 17000 nM | 44.1 µM | 17.3 µM | 52900 nM | 23.3 µM | 94100 nM | 23.9 µM | 60.4 µM
7 | COc1ccc(Cn2nc(-c3cc(OC)c(OC)c(OC)c3)c3c2CCc2cnoc2-3)cc1OC | 5.62 µM | > 100000 nM | 7.28 µM | > 100 µM | 6.85 µM | 56.1 µM | 4.36 µM | 33 µM | 7.99 µM | > 100 µM | 2000 nM | 9800 nM | 1630 nM | 9.29 µM | 3.89 µM | 37600 nM | 14.8 µM | > 100000 nM | 10.1 µM | > 100 µM
8 | CN(C)CCNC(=O)c1cccn2c(=O)c3cc4ccccc4cc3nc12 | 0.68 µM | 2830 nM | 0.0396 µM | 2.17 µM | 0.145 µM | 2.99 µM | 0.235 µM | 22.8 µM | 0.185 µM | 47.7 µM | 122 nM | 667 nM | 98.1 nM | 0.286 µM | 0.161 µM | 1410 nM | 0.116 µM | 617 nM | 0.399 µM | 9.8 µM
9 | CC12CCC=CC1CCC1C2CCC2(C)C(c3ccc(=O)oc3)CCC12O (stereo not given) | 0.0391 µM | 436 nM | 0.0688 µM | 1.36 µM | 0.224 µM | 0.614 µM | 0.218 µM | 0.641 µM | 0.215 µM | 1.23 µM | 49.6 nM | 457 nM | 16.7 nM | 0.047 µM | 0.134 µM | 1450 nM | 0.0423 µM | 204 nM | 0.0479 µM | 0.499 µM
